Results taken from US20040192771A1, “Ether compounds and compositions for cholesterol management and related uses” (priority 2001, published 2004).
Where two headings read alike, the source gives them in different places.

Tests used:
obese female Zucker rats [1] = assay: Oral daily treatment of obese female Zucker rats for fourteen days; serum lipids and glycemic control indicators; assay type: in vivo; conditions: Rattus norvegicus, percent change from study prebleed; for change in vivo at 70 mg/kg/day: 70 mg/kg/day oral; for change in vivo at 90 mg/kg/day: 90 mg/kg/day oral; for change in vivo at 97 mg/kg/day: 97 mg/kg/day oral; for change in vivo at 100 mg/kg/day: 100 mg/kg/day oral
Description: In a number of different experiments, illustrative compounds of the invention are administered daily at a dose of up to 100 mg/kg to chow fed obese female Zucker rats for fourteen days in the morning by oral gavage in 1.5% carboxymethylcellulose/0.2% Tween 20 or 20% ethanol/80% polyethylene glycol (dosing vehicles). Animals are weighed daily. Animals are allowed free access to rodent chow and water throughout the study except on days of blood sampling where food is restricted for six hours prior to blood sampling. Blood glucose is determined after the 6 hour fast in the afternoon without anesthesia from a tail vein. Serum is also prepared from pretreatment blood samples subsequently obtained from the orbital venous plexus (with O2/CO2 anesthesia) and following the fourteenth dose at sacrifice from the heart following O2/CO2 anesthesia. Serums are assayed for lipoprotein cholesterol profiles, triglycerides, total cholesterol, Non HDL cholesterol, HDL cholesterol, the ratio of HDL cholesterol to that of Non HDL cholesterol, insulin, non esterified fatty acids, and beta hydroxy butyric acid. The percent body weight gain and the ratio of liver to body weight is also determined. These are shown as absolute values or as a percent change of the pretreatment values in Table C. [drawing 479] [drawing 480]

primary rat hepatocytes = assay: Inhibition of lipid synthesis ([1-14C]-acetate incorporation) in primary cultures of rat hepatocytes; assay type: cell-based; conditions: Hepatocyte, total lipid synthesis, 4 hours incubation
Description: Compounds were tested for inhibition of lipid synthesis in primary cultures of rat hepatocytes. Male Sprague-Dawley rats were anesthetized with intraperitoneal injection of sodium pentobarbital (80 mg/kg). Rat hepatocytes were isolated essentially as described by the method of Seglen (Seglen, P. O. Hepatocyte suspensions and cultures as tools in experimental carcinogenesis. J. Toxicol. Environ. Health 1979, 5, 551-560). Hepatocytes were suspended in Dulbecco's Modified Eagles Medium containing 25 mM D-glucose, 14 mM HEPES, 5 mM L-glutamine, 5 mM leucine, 5 mM alanine, 10 mM lactate, 1 mM pyruvate, 0.2% bovine serum albumin, 17.4 mM non-essential amino acids, 20% fetal bovine serum, 100 nM insulin and 20 μg/mL gentamycin) and plated at a density of 1.5×10^5 cells/cm^2 on collagen-coated 96-well plates. Four hours after plating, media was replaced with the same media without serum. Cells were grown overnight to allow formation of monolayer cultures. Lipid synthesis incubation conditions were initially assessed to ensure the linearity of [1-^14C]-acetate incorporation into hepatocyte lipids for up to 4 hours. Hepatocyte lipid synthesis inhibitory activity was assessed during incubations in the presence of 0.25 μCi [1-^14C]-acetate/well (final radiospecific activity in assay is 1 Ci/mol) and 0, 1, 3, 10, 30, 100 or 300 μM of compounds for 4 hours. At the end of the 4-hour incubation period, medium was discarded and cells were washed twice with ice-cold phosphate buffered saline and stored frozen prior to analysis. To determine total lipid synthesis, 170 μl of MicroScint-E® and 50 μl water was added to each well to extract and partition the lipid soluble products to the upper organic phase containing the scintillant. Lipid radioactivity was assessed by scintillation spectroscopy in a Packard TopCount NXT.

obese female Zucker rats [2] = assay: Oral daily treatment of obese female Zucker rats for fourteen days; serum lipids and glycemic control indicators; assay type: in vivo; conditions: Rattus norvegicus, 168 h; percent change from study prebleed; week 1; 97 mg/kg/day oral; read-out: HDL-C
[3] = 168 h, week 1, read-out: Glucose
[4] = 168 h, week 1, read-out: Insulin
[5] = 168 h, week 1, read-out: Non-HDL-C
[6] = 336 h, week 2, read-out: Glucose
[7] = 336 h, week 2, read-out: Insulin
[8] = 336 h, week 2, read-out: Non-HDL-C

## CC(C)(Cc1cccc(Oc2cccc(CC(C)(C)C(=O)O)c2)c1)C(=O)O [Compound 135, 3-{3-[3-(2-Carboxy-2-methylpropyl)-phenoxy]-phenyl}-2,2-dimethylpropionic acid]
Obese female Zucker rats [1]; [3]
  change in vivo at 70 mg/kg/day: -13%
Obese female Zucker rats [1]; 168 h, week 1, read-out: HDL-C
  change in vivo at 70 mg/kg/day: 63%
Obese female Zucker rats [1]; [4]
  change in vivo at 70 mg/kg/day: -43%
Obese female Zucker rats [1]; [5]
  change in vivo at 70 mg/kg/day: -53%
Obese female Zucker rats [1]; 168 h, week 1, read-out: TC
  change in vivo at 70 mg/kg/day: 3%
Obese female Zucker rats [1]; 168 h, week 1, read-out: TG
  change in vivo at 70 mg/kg/day: -45%
Obese female Zucker rats [1]; [6]
  change in vivo at 70 mg/kg/day: -16%
Obese female Zucker rats [1]; 336 h, week 2, read-out: HDL-C
  change in vivo at 70 mg/kg/day: 31%
Obese female Zucker rats [1]; [7]
  change in vivo at 70 mg/kg/day: 1%
Obese female Zucker rats [1]; [8]
  change in vivo at 70 mg/kg/day: -41%
Obese female Zucker rats [1]; 336 h, week 2, read-out: TC
  change in vivo at 70 mg/kg/day: -7%
Obese female Zucker rats [1]; 336 h, week 2, read-out: TG
  change in vivo at 70 mg/kg/day: -52%
Primary rat hepatocytes
  IC50: 52 µM

## CC(C)(CO)Cc1cccc(Oc2cccc(CC(C)(C)CO)c2)c1 [Compound 136, 3-{3-[3-(3-Hydroxy-2,2-dimethylpropyl)-phenoxy]-phenyl}-2,2-dimethylpropan-1-ol]
Obese female Zucker rats [1]; [3]
  change in vivo at 90 mg/kg/day: -20%
Obese female Zucker rats [1]; 168 h, week 1, read-out: HDL-C
  change in vivo at 90 mg/kg/day: 22%
Obese female Zucker rats [1]; [4]
  change in vivo at 90 mg/kg/day: -57%
Obese female Zucker rats [1]; [5]
  change in vivo at 90 mg/kg/day: -12%
Obese female Zucker rats [1]; 168 h, week 1, read-out: TC
  change in vivo at 90 mg/kg/day: 1%
Obese female Zucker rats [1]; 168 h, week 1, read-out: TG
  change in vivo at 90 mg/kg/day: 13%
Obese female Zucker rats [1]; [6]
  change in vivo at 90 mg/kg/day: -3%
Obese female Zucker rats [1]; 336 h, week 2, read-out: HDL-C
  change in vivo at 90 mg/kg/day: -4%
Obese female Zucker rats [1]; [7]
  change in vivo at 90 mg/kg/day: -45%
Obese female Zucker rats [1]; [8]
  change in vivo at 90 mg/kg/day: 23%
Obese female Zucker rats [1]; 336 h, week 2, read-out: TC
  change in vivo at 90 mg/kg/day: 9%
Obese female Zucker rats [1]; 336 h, week 2, read-out: TG
  change in vivo at 90 mg/kg/day: 18%
Primary rat hepatocytes
  IC50: 98 µM

## CC(C)(CO)CCCC1CCC(CCCC(C)(C)CO)O1 (centres unmarked) [Compound 138, 5-[5-(5-Hydroxy-4,4-dimethylpentyl)-tetrahydrofuran-2-yl]-2,2-dimethylpentan-1-ol]
Obese female Zucker rats [1]; [3]
  change in vivo at 97 mg/kg/day: 35%
Obese female Zucker rats [1]; [4]
  change in vivo at 97 mg/kg/day: 43%
Obese female Zucker rats [1]; [5]
  change in vivo at 97 mg/kg/day: 11%
Obese female Zucker rats [1]; 168 h, week 1, read-out: TC
  change in vivo at 97 mg/kg/day: 128%
Obese female Zucker rats [1]; 168 h, week 1, read-out: TG
  change in vivo at 97 mg/kg/day: -49%
Obese female Zucker rats [1]; [6]
  change in vivo at 97 mg/kg/day: 10%
Obese female Zucker rats [1]; 336 h, week 2, read-out: HDL-C
  change in vivo at 97 mg/kg/day: 140%
Obese female Zucker rats [1]; [7]
  change in vivo at 97 mg/kg/day: 69%
Obese female Zucker rats [1]; [8]
  change in vivo at 97 mg/kg/day: 31%
Obese female Zucker rats [1]; 336 h, week 2, read-out: TC
  change in vivo at 97 mg/kg/day: 74%
Obese female Zucker rats [1]; 336 h, week 2, read-out: TG
  change in vivo at 97 mg/kg/day: -13%
Primary rat hepatocytes
  IC50: 9 µM
Obese female Zucker rats [2]
  change in vivo at 97 mg/kg/day: 287%

## CC(C)(CO)CCCC1CCCC(CCCC(C)(C)CO)O1 (centres unmarked) [Compound 141, 5-[6-(5-Hydroxy-4,4-dimethylpentyl)-tetrahydropyran-2-yl]-2,2-dimethylpentan-1-ol]
Obese female Zucker rats [1]; [3]
  change in vivo at 100 mg/kg/day: -14%
Obese female Zucker rats [1]; 168 h, week 1, read-out: HDL-C
  change in vivo at 100 mg/kg/day: 75%
Obese female Zucker rats [1]; [4]
  change in vivo at 100 mg/kg/day: -2%
Obese female Zucker rats [1]; [5]
  change in vivo at 100 mg/kg/day: -70%
Obese female Zucker rats [1]; 168 h, week 1, read-out: TC
  change in vivo at 100 mg/kg/day: 28%
Obese female Zucker rats [1]; 168 h, week 1, read-out: TG
  change in vivo at 100 mg/kg/day: -74%
Obese female Zucker rats [1]; [6]
  change in vivo at 100 mg/kg/day: -9%
Obese female Zucker rats [1]; 336 h, week 2, read-out: HDL-C
  change in vivo at 100 mg/kg/day: 127%
Obese female Zucker rats [1]; [7]
  change in vivo at 100 mg/kg/day: 10%
Obese female Zucker rats [1]; [8]
  change in vivo at 100 mg/kg/day: -31%
Obese female Zucker rats [1]; 336 h, week 2, read-out: TC
  change in vivo at 100 mg/kg/day: 70%
Obese female Zucker rats [1]; 336 h, week 2, read-out: TG
  change in vivo at 100 mg/kg/day: -47%
Primary rat hepatocytes
  IC50: 39 µM

## CC(C)(CCCCOCCCCC(C)(C)CCC(=O)O)CCC(=O)O [Compound 145, 4,4,14,14-Tetramethyl-9-oxaheptadecane-1,17-dioic acid]
Obese female Zucker rats [1]; [3]
  change in vivo at 100 mg/kg/day: -1%
Obese female Zucker rats [1]; 168 h, week 1, read-out: HDL-C
  change in vivo at 100 mg/kg/day: 13%
Obese female Zucker rats [1]; [4]
  change in vivo at 100 mg/kg/day: -34%
Obese female Zucker rats [1]; [5]
  change in vivo at 100 mg/kg/day: -50%
Obese female Zucker rats [1]; 168 h, week 1, read-out: TC
  change in vivo at 100 mg/kg/day: -3%
Obese female Zucker rats [1]; 168 h, week 1, read-out: TG
  change in vivo at 100 mg/kg/day: -80%
Obese female Zucker rats [1]; [6]
  change in vivo at 100 mg/kg/day: 16%
Obese female Zucker rats [1]; 336 h, week 2, read-out: HDL-C
  change in vivo at 100 mg/kg/day: 39%
Obese female Zucker rats [1]; [7]
  change in vivo at 100 mg/kg/day: -45%
Obese female Zucker rats [1]; [8]
  change in vivo at 100 mg/kg/day: -30%
Obese female Zucker rats [1]; 336 h, week 2, read-out: TC
  change in vivo at 100 mg/kg/day: 21%
Obese female Zucker rats [1]; 336 h, week 2, read-out: TG
  change in vivo at 100 mg/kg/day: -73%
Primary rat hepatocytes
  IC50: 22 µM
